Series [1] relates to mouse liver. The experiment in a line: Adduct-trapping in mouse liver proteins (Western blot, immunohistochemistry). It is filed as in vivo. Background: A western blot detects proteins with antibodies after separation by electrophoresis.
Series [2] concerns mouse hepatocytes.
Series [3] has as its system mouse hepatocytes. Briefly: cells. The conditions noted are these: Hepatocyte, 1 h.
For series [4], the target named is T1, acrolein-modified BSA (Bos taurus, UniProt P02769).
T1 construct: a model protein (BSA, bovine serum albumin); from tissue; host or cells: bovine serum (from the protein's name only)
T1 sequence (P02769 25-607): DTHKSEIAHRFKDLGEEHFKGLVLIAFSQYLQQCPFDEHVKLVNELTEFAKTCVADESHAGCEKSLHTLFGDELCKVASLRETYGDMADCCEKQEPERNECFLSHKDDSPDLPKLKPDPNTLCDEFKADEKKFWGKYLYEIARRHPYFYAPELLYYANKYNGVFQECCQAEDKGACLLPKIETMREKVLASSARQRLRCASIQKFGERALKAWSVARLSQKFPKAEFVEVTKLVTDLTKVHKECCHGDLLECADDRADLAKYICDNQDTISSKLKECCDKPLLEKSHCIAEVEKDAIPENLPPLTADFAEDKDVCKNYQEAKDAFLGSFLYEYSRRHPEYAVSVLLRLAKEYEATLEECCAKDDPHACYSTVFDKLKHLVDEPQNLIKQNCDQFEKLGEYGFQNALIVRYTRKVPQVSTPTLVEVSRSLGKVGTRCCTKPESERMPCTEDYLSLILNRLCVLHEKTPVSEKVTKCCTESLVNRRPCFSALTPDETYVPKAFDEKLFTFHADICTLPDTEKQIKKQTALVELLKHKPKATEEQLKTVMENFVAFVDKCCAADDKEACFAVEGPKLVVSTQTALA
The experiment in a line: Cell-free immunoassay for adduct-breaking on acrolein-pretreated BSA. It is filed as biochemical, bovine. The following applies: for adduct-breaking activity (acrolein-lysine adducts in BSA): BSA pretreated with 1 mM acrolein 20 min, 50, 250 and 500 μM test compound, 30 min at 37° C.

For series [5] the following is noted: pH 7.
The test system of series [6] is mouse hepatocytes. The source holds these as a separate data set.
Series [7] relates to mouse hepatocytes. This is another data set of the same source.
For series [8], the system named is mouse hepatocytes. The following applies: 0.5 mM acrolein; 0.3 to 3 mM hydralazine.
The target of series [9] is acrolein-premodified BSA (Bos taurus, UniProt P02769). The conditions noted are these: 1 mM acrolein, then 50 to 500 μM hydralazine 30 min.
Sequence of acrolein-premodified BSA (P02769 25-607): as above
The target of series [10] is bovine pancreas ribonuclease A (Bos taurus, UniProt P61823). The conditions noted are these: 3.2 mM acrolein; 0.3 to 3 mM hydralazine.
Sequence of bovine pancreas ribonuclease A (P61823 27-150): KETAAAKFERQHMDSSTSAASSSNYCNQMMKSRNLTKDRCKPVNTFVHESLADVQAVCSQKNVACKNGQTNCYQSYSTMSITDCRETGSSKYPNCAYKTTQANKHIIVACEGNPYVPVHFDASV
Series [11] concerns PC-12 cells. Briefly: Allylamine cytotoxicity in PC-12 cells (MTT).
Series [12] has as its system mouse hepatocytes. This is another data set of the same source.
For series [13], the system named is mice. Briefly: Allyl alcohol hepatotoxicity in mice (plasma SDH, GPT, hepatic GSH).
The test system of series [14] is mouse hepatocytes. The following applies: 15 min, 3 mM hydralazine alone or 0.5 mM acrolein + 0.3 to 3 mM hydralazine.
For series [15] the following is noted: hypertensive human subjects, 50 mg oral dose; cited from earlier work.
Series [16] is described as follows: Sequestering of crotonaldehyde from buffered solution at 37° C. (HPLC). The following applies: equimolar scavenger, up to 30 minutes.
The mark [17] stands for this setting: 200 vs 100 μmol/kg hydralazine, allyl alcohol 90 mg/kg, 60 minutes.
Setting [18] is: read-out: PC50 (concentration affording 50% reduction in cell killing).
The mark [19] stands for this setting: read-out: PC50 (concentration producing a 50% decrease in LDH leakage).
Setting [20] is: allyl alcohol 90 mg/kg i.p., 4 hours, estimated from dose-response.
Setting [21] is: hydralazine 200 μmol/kg i.p., allyl alcohol 90 mg/kg.

Like-named read-outs stand apart in the source and are kept apart here.

`NNc1nncc2ccccc12` [hydralazine]: in series [1] (setting [17]), the “elevation in signal intensity, 26 kDa protein” value is reported as 2.6 fold and the “elevation in signal intensity, 31 kDa protein” value worked out at 2.4 fold. For the same molecule, the “adduct-trapping in liver proteins (Western blot)” value in series [1] (60 minutes after allyl alcohol 90 mg/kg + hydralazine 100 μmol/kg) is given as “strong adduct-trapping”. Besides, the “immunohistochemical detection of hydralazine-stabilized acrolein adducts in liver sections” value in [1] (4 hours after 300 μmol/kg i.p., hydralazine given with allyl alcohol, hydrazone given alone) is reported as “intense adduct-trapping”. In addition, the “effect on cyclophosphamide-induced LDH leakage” value in series [2] is on record as “attenuated the toxicity of cyclophosphamide”. Further, in series [3] (setting [18]), the EC50 worked out at 8.3 ± 4 µM. Also, in [3] (setting [19]), the EC50 came to 18 ± 0.81 µM. Further, in series [4] (BSA + 1 mM acrolein 15-180 min, then 2 mM hydralazine 30 min), the “time acrolein adducts retained susceptibility to cleavage by hydralazine” value was “at least 30 minutes”. For the same molecule, in series [4], the “adduct-breaking activity (acrolein-lysine adducts in BSA)” value is listed as “diminished the intensity of acrolein adducted-BSA in a concentration-dependent manner”. In series [5], the “acrolein removed from solution” value is given as “approximately 82%”. Also, in series [6] (100 μM allyl alcohol 25 min, then 5 to 50 μM hydralazine 30 min), the “adduct-trapping in cell proteins” value is given as “intense, concentration-dependent adduct-trapping”. Besides, the “increase in band intensity (densitometry)” value in series [6] (37, 40 and 43 kDa proteins, hydralazine 4 to 10 μM, postadduction phase) is on record as 12- to-200 fold. In series [7], the “attenuation of allyl alcohol toxicity (LDH leakage)” value is “strongly attenuated the toxicity of allyl alcohol” and the “protection against allyl alcohol toxicity (LDH leakage)” value is given as “inhibited this toxicity in a concentration dependent manner”. Moreover, the “cytoprotection against acute acrolein toxicity (LDH leakage)” value in [8] is reported as “afford cytoprotection”. Besides, the “adduct-trapping in acrolein-premodified BSA” value in series [9] is listed as “strong adduct-trapping”. Also, in series [10], the “acrolein-lysine adducts in RNase A, added at 30 minutes” value was “abolished the levels of acrolein-lysine adducts”; the “effect on cross-linked RNase A, added at 120 minutes” value is listed as “incapable of cleaving crosslinked RNase A”; the “inhibition of RNase A cross-linking, added at 30 minutes” value is reported as “strongly inhibited formation of crosslinked RNase A”. Also, the “adduct-trapping in PC12 cell proteins (Western blot)” value in series [11] (100 μM hydralazine + 80 or 100 μM allylamine) is recorded as “intense adduct-trapping reactions”. In addition, the “protection against allylamine toxicity, added after 4 hour prior exposure” value in series [11] (100 μM hydralazine, 20-100 μM allylamine) was “also protected”. In series [11] (100 μM hydralazine, 20-100 μM allylamine, overnight), the “protection against allylamine toxicity, concurrent exposure” value is “clear protection”. Also, the “protection against pentenal toxicity” value in [12] (1 mM pentenal, 3 hours) is “protection was most efficient for pentenal toxicity”. Further, the “concentration achieving complete protection against propargyl alcohol toxicity” value in series [12] (1 mM propargyl alcohol, 3 hours, highest concentration used) turned out to be 100 µM. Also, the “concentration achieving complete protection against MDA toxicity” value in [12] (10 mM MDA, 12 to 18 hours, highest concentration used) came out at 100 µM. The “effect on allyl alcohol-induced changes in plasma SDH and GPT activities” value in [13] (allyl alcohol 90 mg/kg i.p. + hydralazine 300 μmol/kg i.p., 4 hours) is reported as “almost totally abolishing”. Moreover, in series [13] (setting [20]), the “dose affording half-maximal protection against liver injury (GPT)” value was 80 µmol/kg and the “dose affording half-maximal protection against liver injury (SDH)” value is 160 µmol/kg. Besides, the “effect on hepatic GSH depletion caused by allyl alcohol” value in [13] (allyl alcohol 90 mg/kg, hepatoprotective doses up to 300 μmol/kg) is listed as “had no effect upon the hepatic GSH depletion”. Further, in series [13] (allyl alcohol 100 mg/kg i.p. + hydralazine 100 μmol/kg i.p., 4 hours), the “effect on plasma SDH levels” value was “did not alter the levels of SDH”. Also, the “decrease in plasma SDH activity” value in series [13] (allyl alcohol 100 mg/kg i.p. + hydralazine 200 and 300 μmol/kg i.p., 4 hours) fell in the range of 75 to 90%. Moreover, in series [13] (setting [21]), the “hepatoprotection (plasma SDH), 30 minute delay” value is on record as “hepatoprotective efficacy was diminished” and the “hepatoprotection (plasma SDH), co-administered or 20 minute delay” value is given as “strongly hepatoprotective”. Further, the “intensity of acrolein adduct-containing protein bands” value in [14] is on record as “much lower than that seen in control cells”. Also, the “intensity of acrolein adduct-containing protein bands” value in series [14] (listed as Hydralazine) is reported as “decreasing levels of adducted proteins below control values”. Besides, in series [15], the peak plasma level was about 2 µM.

carnosine: in series [4], the “adduct-breaking activity (acrolein-lysine adducts in BSA)” value was “lacked adduct-breaking potency”. For the same molecule, the “acrolein removed from solution” value in series [5] is listed as “approximately 20%”. Moreover, the EC50 in [7] (setting [18]) and in series [7] (setting [19]) was over 10000 µM in each case. Also, in series [16], the “ability to sequester crotonaldehyde from solution” value is listed as “slightly more effective at removing crotonaidehyde from solution than pyridoxamine”.

The values above are taken from patent US20060160848A1 (priority 2002, published 2006).
